The results in this text go back to article PMC8591201, “Anti-Tumor Activity of AZD4547 Against NTRK1 Fusion Positive Cancer Cells Through Inhibition of NTRKs” (Frontiers in Oncology, 2021).

SMILES strings stand for the structures.

What all share (experiment): cells
Holding throughout (set-up): Anti-proliferation, 10-point dose response, CellTiter-Glo luminescence (MTT stated for KM12(Luc)), GI50 fitted in Prism
A general note: Cellular ATP, detected with luciferase, serves as a proxy for viable cell number.

Assay [1] relates to HeLa. As to conditions: Homo sapiens, HeLa, 72 h, read-out: GI50 (µM) a. The protocol: (§1) To obtain the GI50 value of a substance, cell viability was measured using MTT (G4000, Promega, USA) for KM12(Luc) cell and Cell titer glo (G7572, Promega, USA) for other cell lines. For adherent cells, cells were seeded at 5,000 cells/well in a 96-well plate and treated with a substance one day after cell seeding. For suspension cells, 10,000 cells/well were seeded and the substance was treated after 4 h stabilization of cells. The substance was treated at 10 points of 1:3 serial dilution (0–100 µmol/L) for 72 h. For MTT assay, 15 µL dye solution was added to each well and incubated 4 h at 37°C. 100 µL of solubilization solution was added and followed 1 hr incubation. Absorbance at 570 nm of each well was recorded using EnVision microplate reader (Perkin Elmer). For Cell titer glo assay, Cell titer glo reagent was treated in each well and measured the luminescence by EnVision microplate reader (Perkin Elmer). Viable cells in each well were normalized by using 0.5% DMSO-treated wells (100%). The inhibitor dose−response curve was fitted and GI50 values were calculated using Prism 7.0 software (GraphPad). All assays were performed in duplicate and the standard deviation (SD) was determined from two independent experiments. KM12(Luc) was purchased from the JCRB cell bank. KM12 (Luc) was used within 6 months after purchase and the DNA profiles were confirmed using a short tandem repeat (STR) analysis by the Korean Cell Line Bank. KM12(Luc) cells were maintained in DMEM supplemented with 10% FBS and antibiotics. Parental Ba/F3 cells were purchased from DSMZ and were grown in RPMI1640 supplemented with 10% FBS and antibiotics in the presence of IL3, Transformed Ba/F3 cell lines were grown in the same media without IL3. Cells used in this study were negative for mycoplasma contamination. AN3-CA, HEC1A, U138, 8505C, MKN28, MKN45, A172, A375, Capan-1 HeLa, HEP3B, MCF-7 and MIA-paca-2 cells were maintained in DMEM (Welgene, Korea) supplemented with 10% FBS and antibiotics (Welgene, Korea). Otherwise, all cells were maintained in RPMI (Welgene, Korea) supplemented with 10% FBS and antibiotics (Welgene, Korea). To identify AZD4547 sensitive cell lines other than FGFR-mutant driven cancer cells, GI50 values were determined for AZD4547 against 64 different cancer cell lines, including AN3-CA used as a positive control ( Figure 1A and Table S1 ). […] Also, inhibitory activity of AZD4547 against DDR1 or FLT3 allows suppression of proliferation of U-2-OS and MV4-11 ([43]). Therefore, our attention focused on the inhibitory activity of AZD4547 against KM12(Luc) cell lines which have the TPM3-NTRK1 fusion gene. To exclude the possibility that the anti-proliferation activity of AZD4547 against KM12(Luc) is a common characteristic of FGFR inhibitors, we determined if BGJ398, a representative FGFR inhibitor, is also capable of suppressing proliferation of KM12(Luc) cells ( Figure 1B ).

For assay [2], the system named is MDA-MB-468. Particulars: Homo sapiens, MDA-MB-468, 72 h, read-out: GI50 (µM) a. The protocol: as §1
The test system of assay [3] is MCF7. As to conditions: Homo sapiens, MCF7, 72 h, read-out: GI50 (µM) a. The protocol:
as §1

For assay [4], the system named is A172. Particulars: Homo sapiens, A 172, 72 h, read-out: GI50 (µM) a. The procedure: as §1
Assay [5] has as its system MDA-MB-453. As to conditions: Homo sapiens, MDA-MB-453, 72 h, read-out: GI50 (µM) a. The protocol:
as §1

In assay [6] the test system is PANC-1. Particulars: Homo sapiens, PANC-1, 72 h, read-out: GI50 (µM) a. The protocol:
as §1

Assay [7] relates to LNCaP. Particulars: Homo sapiens, LNCaP, 72 h, read-out: GI50 (µM) a. The procedure:
as §1

Assay [8] has as its system Molm-14. As to conditions: Homo sapiens, MOLM-14, 72 h, read-out: GI50 (µM) a. The protocol:
as §1

Assay [9] concerns OVCAR-8. Particulars: Homo sapiens, OVCAR-8, 72 h, read-out: GI50 (µM) a. The procedure:
as §1

The test system of assay [10] is SK-MEL-30. Particulars: Homo sapiens, SK-MEL-30, 72 h, read-out: GI50 (µM) a. The protocol: as §1
For assay [11], the system named is NCI-H2009. Particulars: Homo sapiens, NCI-H2009, 72 h, read-out: GI50 (µM) a. The procedure: as §1
Assay [12] relates to MDA-MB-231. Particulars: Homo sapiens, MDA-MB-231, 72 h, read-out: GI50 (µM) a. The protocol:
as §1

As usually defined, the GI50 is the concentration that inhibits growth by half. As to `COc1cc(CCc2cc(NC(=O)c3ccc(N4C[C@@H](C)N[C@@H](C)C4)cc3)n[nH]2)cc(OC)c1` [AZD4547], the GI50 was found to be 4.38 µM in assay [1]; 11.5 µM in assay [2]; 7.84 µM in [3]; 2.18 µM in assay [4]; 5.36 µM in [5]; 8.65 µM in [6]. For the same molecule, the GI50 was determined as 22.7 µM in assay [7]; 1.25 µM in assay [8]; 4.97 µM in assay [9]; 16.5 µM in assay [10]; 50 µM in assay [11]; 20.9 µM in assay [12].
